One experiment is filed under the species Homo sapiens. Put plainly: Selectivity index, ratio of Ki for inhibition of C-terminal 6x-histidine tagged beta-catenin (138 to 686 residues) (unknown origin) expressed in Escherichia coli BL21 DE3/N-terminally biotinylated human E-cadherin (824 to 877 residues) protein-protein interactions by Alpha-screen assay to Ki for ….
Experiment [1] addresses beta-catenin-B-cell lymphoma 9 protein complex (Homo sapiens, UniProt P35222, D145A/E155A). Kind of experiment: Inhibition of inhibited beta-catenin D145A/E155A mutant (unknown origin) expressed in Escherichia coli BL21 DE3 /human BCL9 (350 to 375 residues) protein-protein interactions by Alpha-screen assay.
The test system of another experiment is MCF-10A. Put plainly: Cytotoxicity in human MCF10A cells assessed as reduction in cell viability incubated for 72 hrs by MTS assay. It counts as cell-based. On the technique in general: Formazan colour is commonly taken as a measure of viable cells.
Another experiment relates to HCT-116. Kind of experiment: Cytotoxicity in human HCT116 cells assessed as reduction in cell viability incubated for 72 hrs by MTS assay. It counts as functional, cell-based. To be noted: for IC50: HCT-116, 72 h.
In another experiment the test system is HT-29. Put plainly: Cytotoxicity in human HT-29 cells assessed as reduction in cell viability incubated for 72 hrs by MTS assay. It counts as functional, cell-based. To be noted: for IC50: HT-29, 72 h.
Experiment [2] has as its system SW480. Put plainly: Inhibition of anchorage-independent growth in human SW480 cells incubated fro 18 days by crystal violet staining based assay. It counts as functional, cell-based.
The test system of the next experiment is A549. Kind of experiment: Cytotoxicity in human A549 cells assessed as reduction in cell viability incubated for 72 hrs by MTS assay. It counts as functional, cell-based. To be noted: A549, 72 h.
The next experiment deals with MDA-MB-231. Put plainly: Cytotoxicity in human MDA-MB-231 cells assessed as reduction in cell viability incubated for 72 hrs by MTS assay. It is filed as functional, cell-based. The settings on record: for IC50: MDA-MB-231, 72 h.
The target in experiment [3] is beta-catenin-B-cell lymphoma 9 protein complex (Homo sapiens, UniProt P35222, D145A). Kind of experiment: Inhibition of inhibited beta-catenin D145A mutant (unknown origin) expressed in Escherichia coli BL21 DE3 /human BCL9 (350 to 375 residues) protein-protein interactions by Alpha-screen assay.
Experiment [4] deals with SW480. Kind of experiment: Cytotoxicity in human SW480 cells assessed as reduction in cell viability incubated for 72 hrs by MTS assay. It counts as functional, cell-based. The settings on record: for IC50: SW480, 72 h.
Experiment [5] addresses T1, beta-catenin-B-cell lymphoma 9 protein complex (Homo sapiens, UniProt P35222).
T1 sequence (P35222 whole entry): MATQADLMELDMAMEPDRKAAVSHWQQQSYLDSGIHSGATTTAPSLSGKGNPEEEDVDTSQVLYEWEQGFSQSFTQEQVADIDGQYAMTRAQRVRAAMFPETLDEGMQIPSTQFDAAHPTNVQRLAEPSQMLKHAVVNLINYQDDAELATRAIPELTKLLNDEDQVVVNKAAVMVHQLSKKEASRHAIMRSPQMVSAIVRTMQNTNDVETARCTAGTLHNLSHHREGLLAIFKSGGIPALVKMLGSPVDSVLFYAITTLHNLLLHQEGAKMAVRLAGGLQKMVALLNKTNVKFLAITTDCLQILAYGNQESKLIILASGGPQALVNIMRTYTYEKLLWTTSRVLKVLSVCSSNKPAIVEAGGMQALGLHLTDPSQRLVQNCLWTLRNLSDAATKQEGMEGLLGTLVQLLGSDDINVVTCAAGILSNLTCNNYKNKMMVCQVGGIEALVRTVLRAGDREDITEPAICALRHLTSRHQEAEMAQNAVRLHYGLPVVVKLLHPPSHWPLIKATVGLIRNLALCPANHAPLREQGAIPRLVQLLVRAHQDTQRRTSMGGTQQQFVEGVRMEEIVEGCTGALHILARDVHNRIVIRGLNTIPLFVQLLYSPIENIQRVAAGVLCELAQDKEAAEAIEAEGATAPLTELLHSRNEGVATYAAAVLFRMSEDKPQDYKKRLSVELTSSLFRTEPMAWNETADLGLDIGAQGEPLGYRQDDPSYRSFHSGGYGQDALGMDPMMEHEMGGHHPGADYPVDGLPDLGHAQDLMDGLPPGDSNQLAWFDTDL
T1 sequence (O00512 whole entry): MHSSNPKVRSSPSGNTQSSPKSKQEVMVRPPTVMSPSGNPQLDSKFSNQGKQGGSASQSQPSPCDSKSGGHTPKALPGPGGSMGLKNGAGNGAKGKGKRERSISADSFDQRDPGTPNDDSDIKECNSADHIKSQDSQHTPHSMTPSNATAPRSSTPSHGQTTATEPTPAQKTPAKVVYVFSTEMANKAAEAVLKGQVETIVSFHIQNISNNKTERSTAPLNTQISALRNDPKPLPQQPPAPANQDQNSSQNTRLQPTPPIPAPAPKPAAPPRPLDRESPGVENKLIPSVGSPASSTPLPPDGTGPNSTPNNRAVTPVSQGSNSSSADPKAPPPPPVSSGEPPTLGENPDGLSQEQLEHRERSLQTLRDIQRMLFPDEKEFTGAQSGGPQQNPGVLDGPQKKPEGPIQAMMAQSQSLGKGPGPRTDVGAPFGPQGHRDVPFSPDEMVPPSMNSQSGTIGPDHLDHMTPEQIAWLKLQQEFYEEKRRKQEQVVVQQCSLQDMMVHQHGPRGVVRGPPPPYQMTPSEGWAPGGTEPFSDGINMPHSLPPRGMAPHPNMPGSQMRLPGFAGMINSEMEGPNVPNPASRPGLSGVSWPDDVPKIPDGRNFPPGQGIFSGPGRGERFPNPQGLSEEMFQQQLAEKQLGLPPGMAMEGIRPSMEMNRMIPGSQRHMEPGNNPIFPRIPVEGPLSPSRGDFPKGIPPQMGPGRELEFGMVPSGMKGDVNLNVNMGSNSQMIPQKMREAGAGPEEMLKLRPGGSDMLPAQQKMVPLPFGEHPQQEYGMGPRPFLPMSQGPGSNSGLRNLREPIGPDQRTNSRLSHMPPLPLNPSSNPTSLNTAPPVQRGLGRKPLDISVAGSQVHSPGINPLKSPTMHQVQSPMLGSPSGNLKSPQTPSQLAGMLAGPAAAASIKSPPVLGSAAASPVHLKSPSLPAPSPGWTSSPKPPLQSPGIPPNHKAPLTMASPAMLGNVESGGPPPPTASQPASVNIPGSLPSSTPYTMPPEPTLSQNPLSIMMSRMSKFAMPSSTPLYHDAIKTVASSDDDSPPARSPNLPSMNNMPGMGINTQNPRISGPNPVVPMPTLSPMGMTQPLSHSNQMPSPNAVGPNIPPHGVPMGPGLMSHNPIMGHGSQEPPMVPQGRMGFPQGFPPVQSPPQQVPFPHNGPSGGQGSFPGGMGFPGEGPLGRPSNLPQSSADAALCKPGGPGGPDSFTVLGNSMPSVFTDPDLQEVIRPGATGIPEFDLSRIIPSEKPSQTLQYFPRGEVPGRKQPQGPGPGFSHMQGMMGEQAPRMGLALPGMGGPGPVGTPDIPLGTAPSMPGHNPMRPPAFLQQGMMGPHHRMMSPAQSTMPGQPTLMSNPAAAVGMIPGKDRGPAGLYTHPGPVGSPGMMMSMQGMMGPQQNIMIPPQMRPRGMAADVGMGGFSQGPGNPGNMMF
Kind of experiment: Inhibition of C-terminal 6x-histidine tagged beta-catenin (138 to 686 residues) (unknown origin) expressed in Escherichia coli BL21 DE3 /human BCL9 (350 to 375 residues) protein-protein interactions incubated for 1 hr by Alpha-screen assay. On the technique in general: Bead proximity is the source of the signal in Alpha formats.

The text below walks through data of ChEMBL document CHEMBL4419168, “Substituted n-([1,1''-biphenyl]-3-yl)-[1,1''-biphenyl]-3-carboxamide analogs as inhibitors for beta-catenin/b-cell lymphoma 9 interactions” (2018).

Usually Ki stands for a measure of affinity in units of concentration, obtained from inhibition or displacement. Read a high Ki as weaker binding. In general, IC50 refers to the point on the concentration scale where inhibition reaches its midpoint.

SMILES strings stand for the structures.

Regarding `NCCOc1ccc(NC(=O)c2ccc(OCCN)c(-c3ccc(F)c(F)c3)c2)cc1-c1ccc(F)cc1`, in the experiment filed under Homo sapiens, the Ratio Ki turned out to be 38.

For `O=C(Nc1ccc(O[C@H]2CCNC2)c(-c2ccc(F)cc2)c1)c1ccc(O[C@H]2CCNC2)c(-c2ccc(F)c(F)c2)c1`, the Ki in experiment [1] amounted to 96.6 µM; in experiment [3] it was 13.4 µM. The IC50 with MCF-10A is 9.07 µM; in the experiment with HCT-116, 3.07 µM; with HT-29, 2.97 µM; with A549 it was 8.79 µM; in the experiment with MDA-MB-231 it was 2.32 to 2.47 µM; in the experiment with SW480 [4], 3.5 µM. Also, the inhibition result in the experiment with HCT-116, with HT-29, in the experiment with SW480 [2], in the experiment on MDA-MB-231 and in the experiment on SW480 [4] was “Dose-dependent effect” in each case.

On to `O=C(Nc1ccc(O[C@H]2CCNC2)c(-c2ccc(F)c(F)c2)c1)c1ccc(O[C@H]2CCNC2)c(-c2ccc(F)c(F)c2)c1`, for which the affinity in experiment [5], expressed as Ki, was 8.71 µM. Besides, the Ratio Ki in the experiment filed under Homo sapiens turned out to be 30.

Regarding `O=C(Nc1ccc(OC2CNC2)c(-c2ccc(F)cc2)c1)c1ccc(OC2CNC2)c(-c2ccc(F)c(F)c2)c1`, the Ratio Ki in the experiment filed under Homo sapiens was 16.

Regarding `O=C(NCCCC(=O)N1CCNCC1)c1ccc(-c2cc(C(=O)Nc3ccc(O[C@H]4CCNC4)c(-c4ccc(F)cc4)c3)ccc2O[C@H]2CCNC2)cc1`, the Ratio Ki in the experiment filed under Homo sapiens stood at 345.

Regarding `Cc1cc(C(=O)Nc2ccc(O[C@H]3CCNC3)c(-c3ccc(F)cc3)c2)ccc1O[C@H]1CCNC1`, the IC50 with MDA-MB-231 is 9.03 µM.

As for `CC(C)c1cc2c(c(O)c1O)[C@@]1(C(=O)O)CCCC(C)(C)[C@@H]1CC2` [CARNOSIC ACID], the IC50 is 8.67 µM in the experiment on HCT-116, 20.2 µM in the experiment on HT-29 and 10.5 µM with SW480 [4]. Also, the Ratio Ki in the experiment listed under Homo sapiens is 73.

On to `NCCOc1ccc(NC(=O)c2ccc(OCCN)c(-c3ccc(F)cc3)c2)cc1-c1ccc(F)cc1`, for which, in experiment [5], the Ki worked out at 11.6 µM.

Consider `O=C(Nc1ccc(O[C@H]2CCNC2)c(-c2ccc(F)cc2)c1)c1ccc(O[C@H]2CCNC2)c(-c2ccc(F)cc2)c1`, for which affinity in experiment [5] was put at a Ki of 6.65 µM. Besides, the IC50 was 19.9 µM with MCF-10A; 8.23 µM in the experiment on HCT-116; 18.8 µM with A549; 7.05 to 8.35 µM in the experiment on MDA-MB-231; 9.86 µM in the experiment on SW480 [4]. The Ratio Ki in the experiment listed under Homo sapiens amounted to 35.

With `O=C(Nc1ccc(O[C@H]2CCNC2)c(-c2ccc(F)cc2)c1)c1ccc(O[C@H]2CCNC2)c(-c2ccc3ccccc3c2)c1`, in the experiment on MDA-MB-231, the half-inhibitory concentration (IC50) amounted to 220 µM.
